Measurements: the Kinase Knowledgebase extract (Sharma et al. 2016)

molecular target: EGFR (rat) (UniProt P00533); details: rat-1/her cells
Sequence (P00533 whole entry, looked up): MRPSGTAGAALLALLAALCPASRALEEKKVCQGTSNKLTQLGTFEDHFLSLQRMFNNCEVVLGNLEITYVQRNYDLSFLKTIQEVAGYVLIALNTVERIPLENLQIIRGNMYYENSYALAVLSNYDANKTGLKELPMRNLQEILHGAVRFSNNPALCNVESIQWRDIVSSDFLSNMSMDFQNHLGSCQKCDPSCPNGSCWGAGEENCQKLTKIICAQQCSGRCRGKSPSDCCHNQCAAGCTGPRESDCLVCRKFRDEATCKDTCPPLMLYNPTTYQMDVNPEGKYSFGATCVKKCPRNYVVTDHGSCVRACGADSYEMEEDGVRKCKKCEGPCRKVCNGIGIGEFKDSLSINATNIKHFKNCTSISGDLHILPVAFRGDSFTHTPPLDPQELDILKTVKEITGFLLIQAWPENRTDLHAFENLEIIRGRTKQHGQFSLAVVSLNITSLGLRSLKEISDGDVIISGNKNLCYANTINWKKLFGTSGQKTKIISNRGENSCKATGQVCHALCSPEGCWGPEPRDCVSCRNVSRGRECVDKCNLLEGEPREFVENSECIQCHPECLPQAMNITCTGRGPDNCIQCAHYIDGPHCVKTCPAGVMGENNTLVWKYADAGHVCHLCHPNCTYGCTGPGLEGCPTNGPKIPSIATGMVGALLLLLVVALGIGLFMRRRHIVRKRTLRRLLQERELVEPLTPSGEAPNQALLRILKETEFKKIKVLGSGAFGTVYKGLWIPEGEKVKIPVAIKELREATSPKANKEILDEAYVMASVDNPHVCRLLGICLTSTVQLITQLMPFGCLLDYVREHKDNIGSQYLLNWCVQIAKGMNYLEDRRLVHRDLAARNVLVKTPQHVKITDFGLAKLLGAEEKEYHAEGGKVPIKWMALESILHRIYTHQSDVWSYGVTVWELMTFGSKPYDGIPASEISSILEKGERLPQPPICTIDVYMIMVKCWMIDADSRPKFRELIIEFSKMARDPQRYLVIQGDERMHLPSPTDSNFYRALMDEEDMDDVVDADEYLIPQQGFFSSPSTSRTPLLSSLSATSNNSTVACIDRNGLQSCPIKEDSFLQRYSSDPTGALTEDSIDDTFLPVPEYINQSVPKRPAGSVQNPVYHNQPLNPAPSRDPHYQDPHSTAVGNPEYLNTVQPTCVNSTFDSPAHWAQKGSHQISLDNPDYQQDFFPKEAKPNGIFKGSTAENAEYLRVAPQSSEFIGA

IC50 [µM] | SMILES
35 | COc1c(Br)cc(C=O)c(O)c1Br
10 | COC1=C(Br)C(=O)[C@]2(C=C1Br)CO2
55 | COC1=C(Br)C(=O)[C@](CC#N)(OC(C)=O)C=C1Br
120 | O=Cc1cc(Br)cc(Br)c1O

same assay, conditions: rat-1/her cells, dose or concentration not given here

SMILES | inhibition [%]
COc1c(Br)cc(CO)c(O)c1Br | 0
COc1c(Br)cc2c(c1Br)OCO2 | 0
COC1=C(Br)C(O)(O)[C@@](O)(CC#N)CC1Br (stereo partly drawn) | 0
COc1c(Br)cc(O)c(O)c1Br | 0
COC1=C(Br)[C@@H](O)[C@@](O)(CC#N)C=C1Br | 0
COC1=C(Br)C(=O)[C@@](O)(CC#N)C=C1Br | 0
COC1=C(Br)[C@H](O)[C@@](O)(CC#N)C=C1Br | 0
COc1ccc(C=O)c(O)c1 | 0
COc1c(Br)cc(CC#N)c(O)c1Br | 0
